Data on seven molecules can be found in BindingDB's records for doi:10.3109/14756366.2011.643304 (Umeå University, 2013).

The target in the experiment is T1, Fatty-acid amide hydrolase 1 [30-579] (Rattus norvegicus, UniProt P97612).
T1 construct: 30-579
T1 sequence (P97612 whole entry): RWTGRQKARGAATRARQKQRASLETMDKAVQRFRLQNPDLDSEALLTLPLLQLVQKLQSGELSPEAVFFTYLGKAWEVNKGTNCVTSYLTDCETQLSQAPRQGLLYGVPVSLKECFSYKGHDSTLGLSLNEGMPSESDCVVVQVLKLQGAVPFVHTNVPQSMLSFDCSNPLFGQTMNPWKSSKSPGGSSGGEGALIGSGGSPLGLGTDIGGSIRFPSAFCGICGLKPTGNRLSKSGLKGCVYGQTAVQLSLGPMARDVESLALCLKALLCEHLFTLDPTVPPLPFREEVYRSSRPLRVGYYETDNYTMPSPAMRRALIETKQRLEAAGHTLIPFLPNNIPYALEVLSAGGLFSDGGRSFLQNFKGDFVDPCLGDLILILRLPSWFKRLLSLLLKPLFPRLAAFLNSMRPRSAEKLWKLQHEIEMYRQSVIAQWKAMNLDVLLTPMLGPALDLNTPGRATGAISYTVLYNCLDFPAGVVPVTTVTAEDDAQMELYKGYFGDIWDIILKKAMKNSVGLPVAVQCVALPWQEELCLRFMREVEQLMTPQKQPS
The experiment can be described thus: FAAH Assay. Particulars: pH 7; 4 °C.
Procedure: Frozen (−80 °C) brains (minus cerebella) from adult Wistar or Sprague-Dawley rats were thawed and homogenized in 20 mM HEPES, 1 mM MgCl2, pH 7.0. and thereafter centrifuged at ~35000 × g for 20 min at 4°C. […] After a further centrifugation, the pellets were resuspended in 50 mMTris-HCl buffer, pH 7.4, containing 1 mM EDTA and 3 mM MgCl2 and frozen at −80°C in aliquots until used for assay. […] Reactions were stopped by placing the tubes on ice. Final assay concentrations of the solvents used for the compounds (ethanol or DMSO) were in the range 1-5%. Activated charcoal (80 μL + 320 μL 0.5 M HCl) was added and the samples were mixed and left at room temperature for about 30 min. Following centrifugation at 2500 rpm for 10 min, aliquots (200 μL) of the supernatants were analyzed for tritium content by liquid scintillation spectroscopy with quench correction. Blank values were obtained by the use of buffer rather than homogenate.
As to `CC(=O)Nc1ccc(OC(=O)CNC(=O)C(C)c2ccc(CC(C)C)cc2)cc1` (configuration not stated) [4-Acetamidophenyl 2-(2-(4-isobutylphenyl)propanamido)acetate (8)], 1.5 µM corresponded to half-maximal inhibition (IC50).

Molecule `Cc1cccnc1OC(=O)C(C)c1ccc(CC(C)C)cc1` (configuration not stated) [3-Methylpyridin-2-yl 2-(4-isobutylphenyl)propanoate (3)] showed an IC50 of 115 µM.

Turning to `Cc1cccnc1NC(=O)CCNC(=O)C(C)c1ccc(CC(C)C)cc1` (configuration not stated) [2-(4-Isobutylphenyl)-N-(3-(3-methylpyridin-2-ylamino)-3-oxopropyl)propanamide (11)], the IC50 came out at 9.3 µM.

`Cc1cccc(NC(=O)CNC(=O)C(C)c2ccc(CC(C)C)cc2)n1` (configuration not stated) [2-(4-Isobutylphenyl)-N-(2-(6-methylpyridin-2-ylamino)-2-oxoethyl)propanamide (10)] gave an IC50 of 150 µM.

`CC(C)Cc1ccc(C(C)C(=O)NCC(=O)NCc2cccnc2)cc1` (configuration not stated) [2-(4-Isobutylphenyl)-N-(2-oxo-2-(pyridin-3-ylmethylamino)ethyl)propanamide (13)] returned an IC50 of 37 µM.

As to `Cc1cccnc1NC(=O)C(C)c1ccc(CC(C)C)cc1` (configuration not stated) [2-(4-isobutylphenyl)-N-(3-methylpyridin-2-yl)propanamide], the IC50 worked out at 0.65 µM.

`CC(C)Cc1ccc(C(C)C(=O)NCC(=O)NCc2ccccn2)cc1` (configuration not stated) [2-(4-Isobutylphenyl)-N-(2-oxo-2-(pyridin-2-ylmethylamino)ethyl)propanamide (12)] gave an IC50 of 90 µM.
